Biological target: BMAL1 (Homo sapiens, UniProt O00327)
Parameters: PASB domain (residues 338–449); Protein thermal shift (PTS) fragment screen on recombinant human BMAL1(PASB), shift of melting temperature
Settings: dTmB; binder

Sequence of BMAL1 (O00327 338-449): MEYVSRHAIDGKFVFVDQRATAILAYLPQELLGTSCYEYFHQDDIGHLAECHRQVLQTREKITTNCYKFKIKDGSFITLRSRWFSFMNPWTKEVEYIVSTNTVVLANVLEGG

| SMILES | Bmal1(PASB) dTmB |
| --- | --- |
| O=C(c1ccccc1)c1ccccc1 [Prestw-Frag-1860, Compound 423] | -0.99 °C |
| CS(=O)(=O)Nc1ccccc1Oc1ccccc1 [Prestw-Frag-1861, Compound 432] | -1.83 °C |
| COC(=O)C(O)(c1ccccc1)C1CCCCC1 (stereo not drawn) [Prestw-Frag-1867, Compound 446] | -1.54 °C |
| c1ccc(CC2CCNCC2)cc1 [Prestw-Frag-1868, Compound 296] | -0.76 °C |
| O=C1NCN(c2ccccc2)C12CCNCC2 [Prestw-Frag-1869, Compound 339] | -0.72 °C |
| Nc1ccnc2ccccc12 [Prestw-Frag-1878, Compound 323] | -0.67 °C |
| CC(=O)c1ccccc1O [Prestw-Frag-1884, Compound 211] | -0.17 °C |
| COc1ccc(CNCCN(C)C)cc1 [Prestw-Frag-1887, Compound 172] | -0.14 °C |
| CN(C)Cc1ccc(CSCCN)o1 [Prestw-Frag-1889, Compound 8] | -2.44 °C |
| Cc1ccc(S(N)(=O)=O)cc1 [Prestw-Frag-1894, Compound 198] | -0.38 °C |
| NS(=O)(=O)c1ccccc1 [Prestw-Frag-1895, Compound 148] | -0.29 °C |
| COc1ccc2nc(N)sc2c1 [Prestw-Frag-1898, Compound 305] | 1.10 °C |
| O=C1Nc2ccccc2Nc2ccccc21 [Prestw-Frag-1904, Compound 439] | 0.05 °C |
| CCCOc1ccccc1C(=N)N [Prestw-Frag-1910, Compound 398] | -0.43 °C |
| Cc1ccccc1-c1ccccc1CO [Prestw-Frag-1923, Compound 451] | -1.24 °C |
| OC(c1ccc(F)cc1)c1ccc(F)cc1 [Prestw-Frag-1924, Compound 461] | -1.89 °C |
| NCCOC(c1ccc(F)cc1)c1ccc(F)cc1 [Prestw-Frag-1925, Compound 448] | -1.45 °C |
| CC(C)(C)NCC(O)c1ccccc1 (stereo not drawn) [Prestw-Frag-1929, Compound 213] | -0.34 °C |
| OCc1cc(O)cc(O)c1 [Prestw-Frag-1935, Compound 76] | -0.85 °C |
| CC(N)C(=O)c1ccccc1 (stereo not drawn) [Prestw-Frag-1941, Compound 223] | -0.18 °C |
| OCCCN1CCN(c2ccccc2)CC1 [Prestw-Frag-1944, Compound 178] | -0.31 °C |
| OCCN1CCN(c2ccccc2)CC1 [Prestw-Frag-1945, Compound 144] | -0.42 °C |

| SMILES | Bmal1(PASB) dTmB |
| --- | --- |
| O=C(CCN1CCCCC1)c1ccccc1 [Prestw-Frag-1953, Compound 479] | -3.22 °C |
| O=C(Cc1ccccc1)NO [Prestw-Frag-1961, Compound 252] | -0.30 °C |
| O=C(O)c1ccc(Oc2ccccc2)cc1 [Prestw-Frag-1968, Compound 155] | -0.89 °C |
| NC(=O)Cc1ccccn1 [Prestw-Frag-1971, Compound 173] | -0.17 °C |
| NS(=O)(=O)c1ccc(Cl)cc1 [Prestw-Frag-1977, Compound 122] | -0.58 °C |
| CCN(CC)CCNc1ccccc1 [Prestw-Frag-1993, Compound 214] | -0.30 °C |
| Cc1cccc(C)c1NC(=O)CN1CCNCC1 [Prestw-Frag-1996, Compound 391] | -0.66 °C |
| NCCc1cnc[nH]1 [Prestw-Frag-1999, Compound 330] | -0.23 °C |
| Cc1c[nH]c(=O)[nH]c1=O [Prestw-Frag-2017, Compound 255] | -0.13 °C |
| CNC(=O)c1ccc(Cl)cc1 [Prestw-Frag-2018, Compound 319] | -0.45 °C |
| Cc1noc(N)c1C [Prestw-Frag-2021, Compound 114] | -0.18 °C |
| CNS(=O)(=O)c1ccccc1 [Prestw-Frag-2023, Compound 256] | -0.20 °C |
| CN(C)CCNC(=O)c1ccc(N)cc1 [Prestw-Frag-2031, Compound 430] | -0.84 °C |
| CC(=O)N1CCN(c2ccc(O)cc2)CC1 [Prestw-Frag-2047, Compound 27] | -2.09 °C |
| O=C(O)C1(c2ccccc2)CCCC1 [Prestw-Frag-2049, Compound 104] | -0.56 °C |
| NS(=O)(=O)c1cc(C(=O)O)ccc1Cl [Prestw-Frag-2051, Compound 160] | 0.10 °C |
| O=C(O)c1ccccc1NCc1ccco1 [Prestw-Frag-2052, Compound 70] | -0.26 °C |
| NC1CCN(Cc2ccccc2)CC1 [Prestw-Frag-2060, Compound 207] | -0.05 °C |
| NCCc1ccc(O)cc1 [Prestw-Frag-2070, Compound 299] | -0.26 °C |
| Nc1cccnn1 [Prestw-Frag-2072, Compound 233] | -0.18 °C |
| Cc1cc(C2CCCCC2)n(O)c(=O)c1 [Prestw-Frag-2092, Compound 58] | -1.46 °C |
| CN(C)C(c1ccccc1)c1ccccc1 [Prestw-Frag-2100, Compound 331] | -1.24 °C |

| SMILES | Bmal1(PASB) dTmB |
| --- | --- |
| COc1ccc(C(F)(F)F)cc1 [Prestw-Frag-2108, Compound 203] | -0.12 °C |
| NC(N)=NCc1cccc(I)c1 [Prestw-Frag-2111, Compound 312] | -0.90 °C |
| COc1ccc2nc(SC)[nH]c2c1 [Prestw-Frag-2118, Compound 167] | 1.19 °C |
| NS(=O)(=O)c1ccc(C(=O)O)cc1 [Prestw-Frag-2123, Compound 82] | -0.15 °C |
| Cc1cc(=O)[nH]c(=S)[nH]1 [Prestw-Frag-2127, Compound 68] | -0.75 °C |
| NC(=O)c1ccccn1 [Prestw-Frag-2131, Compound 358] | -0.11 °C |
| Cc1nc2ccccc2[nH]1 [Prestw-Frag-2136, Compound 408] | -0.37 °C |
| O=C(O)Cc1cccs1 [Prestw-Frag-2140, Compound 161] | -0.19 °C |
| O=C1OCc2ccccc21 [Prestw-Frag-2144, Compound 404] | -0.23 °C |
| O=C(CCc1ccccc1)c1ccccc1O [Prestw-Frag-2152, Compound 434] | -0.33 °C |
| CC(C)NCC(O)c1ccccc1 (stereo not drawn) [Prestw-Frag-2168, Compound 193] | -0.58 °C |
| O=C1CNS(=O)(=O)c2ccsc21 [Prestw-Frag-2176, Compound 30] | -4.81 °C |
| Cc1c(C)c2c(c(C)c1O)CCC(C)(C)O2 [Prestw-Frag-2185, Compound 438] | 1.30 °C |
| COc1cc2c(cc1OC)C(C)NCC2 (stereo not drawn) [Prestw-Frag-2193, Compound 348] | -0.74 °C |
| CCOc1ccc(N)cc1 [Prestw-Frag-2201, Compound 146] | -0.64 °C |
| COc1ccc(OC)c(C(C)O)c1 (stereo not drawn) [Prestw-Frag-2208, Compound 283] | -0.43 °C |
| COc1ccc(CN2CCNCC2)cc1 [Prestw-Frag-2212, Compound 304] | -0.50 °C |
| c1ccc(CN2CCNCC2)cc1 [Prestw-Frag-2215, Compound 424] | -0.38 °C |
| O=C(Cc1ccccc1)c1ccccc1 [Prestw-Frag-2219, Compound 440] | -0.71 °C |
| OCC(O)COc1ccc(Cl)cc1 (stereo not drawn) [Prestw-Frag-2229, Compound 393] | 0.07 °C |
| CS(=O)(=O)c1ccc(CO)cc1 [Prestw-Frag-2234, Compound 220] | -0.40 °C |
| CC(O)(c1ccccc1)c1ccccc1 [Prestw-Frag-2235, Compound 444] | -1.59 °C |

| SMILES | Bmal1(PASB) dTmB |
| --- | --- |
| CC(O)(c1ccccc1)c1ccccn1 (stereo not drawn) [Prestw-Frag-2237, Compound 355] | -0.76 °C |
| OC(c1ccccc1)c1ccccn1 (stereo not drawn) [Prestw-Frag-2238, Compound 262] | -0.66 °C |
| CC(=O)c1ccc2c(c1)Nc1ccccc1S2 [Prestw-Frag-2239, Compound 65] | 0.31 °C |
| CCCCOc1cc(C(=O)OC)ccc1N [Prestw-Frag-2253, Compound 206] | -0.90 °C |
| Nc1nc2ccccc2o1 [Prestw-Frag-2256, Compound 309] | -0.33 °C |
| NC(=O)c1[nH]cnc1N [Prestw-Frag-2268, Compound 14] | -0.68 °C |
| c1ccc2c(c1)OCO2 [Prestw-Frag-2299, Compound 175] | -0.52 °C |
| OCc1ccncc1 [Prestw-Frag-2303, Compound 179] | -0.35 °C |
| OCc1cccnc1 [Prestw-Frag-2304, Compound 272] | -0.06 °C |
| Cc1cccc(C)c1N [Prestw-Frag-2313, Compound 365] | -0.18 °C |
| COc1cc(NS(=O)(=O)c2ccc(N)cc2)ncn1 [Prestw-Frag-2337, Compound 376] | 0.09 °C |
| COC(=O)c1ccc(N)cc1 [Prestw-Frag-2346, Compound 380] | -0.11 °C |
| N=C(N)CSCc1ccccc1 [Prestw-Frag-2348, Compound 201] | 0.25 °C |
| O=C(O)c1cc(=O)c2ccccc2o1 [Prestw-Frag-2352, Compound 352] | -0.25 °C |
| Clc1ccc(CNc2ccccn2)cc1 [Prestw-Frag-2356, Compound 344] | -0.84 °C |
| O=C1c2ccccc2CN1c1ccccc1 [Prestw-Frag-2360, Compound 56] | -0.56 °C |
| NC(=O)C(c1ccccc1)c1ccccc1 [Prestw-Frag-2366, Compound 415] | -0.76 °C |
| S=c1[nH]cc[nH]1 [Prestw-Frag-2373, Compound 253] | -1.25 °C |
| O=C(O)CCC(=O)Nc1ccccc1 [Prestw-Frag-2383, Compound 124] | -0.33 °C |
| O=C(C1COc2ccccc2O1)N1CCNCC1 (stereo not drawn) [Prestw-Frag-2389, Compound 381] | -0.24 °C |
| N#Cc1ccc[nH]c1=O [Prestw-Frag-2408, Compound 346] | -0.07 °C |
